Reference: ChEMBL document CHEMBL1201862, “PubChem BioAssay data set” (2004)
Activity calls are given as the source filed them.

Experiments:
[1] = target: Dual specificity protein phosphatase 3 (Homo sapiens, UniProt P51452); assay: VHR1 inhibitor Ki determination, SAR follow-up, biochemical, colorimetric (AID 2004)
[2] = target: T1, Melanin-concentrating hormone receptor 1 (Homo sapiens, UniProt Q99705); assay: Fluorescence-based counterscreen for antagonists of the G-protein coupled receptor 7 (GPR7): cell-based high throughput dose response assay to identify antagonists of the melanin-concentrating hormone receptor 1 (MCHR1).; type: functional
[3] = Vero E6 cell cytotoxicity, dose response, cytotoxicity control for non-replicating M. tuberculosis project, secondary assay (AID 492998); type: functional, VeroE6; settings: Vero C1008
cells = type: functional
[4] = THP-1 cell cytotoxicity, dose response, cytotoxicity control for non-replicating M. tuberculosis project (AID 489025); type: functional
[5] = target: NACHT, LRR and PYD domains-containing protein 3 (Homo sapiens, UniProt Q96P20); assay: NALP3 inhibitors in yeast, dose response, luminescent (AID 488799); type: functional
Cytochrome P450 1A2 = target: T2, Cytochrome P450 1A2 (Homo sapiens, UniProt P05177);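 further: PubChem cytochrome P450 panel assay, CYP1A2 panel member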
T2 sequence (P05177 whole entry): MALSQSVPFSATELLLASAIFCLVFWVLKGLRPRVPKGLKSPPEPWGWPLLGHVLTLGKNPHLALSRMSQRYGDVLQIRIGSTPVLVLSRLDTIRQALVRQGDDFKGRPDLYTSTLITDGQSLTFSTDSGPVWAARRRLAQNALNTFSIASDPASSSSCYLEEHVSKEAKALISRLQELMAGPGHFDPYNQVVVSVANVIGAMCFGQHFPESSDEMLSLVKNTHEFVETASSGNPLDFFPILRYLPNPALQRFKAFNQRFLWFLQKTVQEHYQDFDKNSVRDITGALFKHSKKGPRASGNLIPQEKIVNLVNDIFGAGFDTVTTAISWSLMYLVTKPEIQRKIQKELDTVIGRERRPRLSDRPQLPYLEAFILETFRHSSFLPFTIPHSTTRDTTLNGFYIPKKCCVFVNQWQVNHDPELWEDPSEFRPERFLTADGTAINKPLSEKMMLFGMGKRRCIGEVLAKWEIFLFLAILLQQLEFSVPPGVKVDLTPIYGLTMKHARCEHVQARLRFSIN

Cytochrome P450 3A4 = Cytochrome P450 3A4 (Homo sapiens, UniProt P08684);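 further: CYP3A4 tested as one member of a cytochrome P450 panel screen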
Protein Rev = Protein Rev (Human immunodeficiency virus type 1 group M subtype B (isolate WMJ22)(HIV-1), UniProt P05866); assay: HIV-1 Rev-RRE RNA binding disruptors, dose response, biochemical, protein-RNA interaction (AID 842); parameters: species or system Human immunodeficiency virus 1
[6] = target: T3, Heat shock factor protein 1 (Mus musculus, UniProt P38532); assay: inhibition of MG132-induced HSE-luciferase signal, confirmation, cell-based, NIH3T3, luminescence, dose retest (AID 2382); type: functional;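 further: NIH3T3 fibroblasts with HSF1-driven luciferase reporter stressed by proteasome inhibitor MG132; luminescence from HSF1-driven luciferase expression after 8 hours of MG132 stress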
T3 sequence (P38532 whole entry): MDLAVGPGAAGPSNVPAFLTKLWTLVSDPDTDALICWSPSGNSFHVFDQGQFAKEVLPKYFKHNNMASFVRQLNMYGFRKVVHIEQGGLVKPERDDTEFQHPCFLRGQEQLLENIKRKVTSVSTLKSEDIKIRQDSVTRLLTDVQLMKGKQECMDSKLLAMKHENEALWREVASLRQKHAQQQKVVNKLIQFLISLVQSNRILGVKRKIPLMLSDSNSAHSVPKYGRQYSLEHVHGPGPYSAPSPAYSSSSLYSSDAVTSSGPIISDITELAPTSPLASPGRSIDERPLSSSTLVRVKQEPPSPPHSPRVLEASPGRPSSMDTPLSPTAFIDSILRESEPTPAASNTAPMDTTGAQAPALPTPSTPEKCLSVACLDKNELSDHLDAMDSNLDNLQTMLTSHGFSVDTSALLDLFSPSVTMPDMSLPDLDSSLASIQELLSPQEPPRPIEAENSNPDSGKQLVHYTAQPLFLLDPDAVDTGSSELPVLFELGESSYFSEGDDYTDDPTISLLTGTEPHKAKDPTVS

[7] = target: Neuropeptides B/W receptor type 1 (Homo sapiens, UniProt P48145); assay: GPR7 antagonist potency, late-stage follow-up, cell-based, fluorescence, dose response (AID 463251); type: functional
[8] = target: T1, Melanin-concentrating hormone receptor 1; assay: Late-stage fluorescence-based counterscreen for antagonists of the G-protein coupled receptor 7 (GPR7): cell-based dose response assay to identify antagonists of the melanin-concentrating hormone receptor 1 (MCHR1). [Related pubchem assays (depositor defined):AID1861, AID1880, AID1952, AID2148, AID2251, AID2257, AID485339]; type: functional

T1 sequence (Q99705 whole entry): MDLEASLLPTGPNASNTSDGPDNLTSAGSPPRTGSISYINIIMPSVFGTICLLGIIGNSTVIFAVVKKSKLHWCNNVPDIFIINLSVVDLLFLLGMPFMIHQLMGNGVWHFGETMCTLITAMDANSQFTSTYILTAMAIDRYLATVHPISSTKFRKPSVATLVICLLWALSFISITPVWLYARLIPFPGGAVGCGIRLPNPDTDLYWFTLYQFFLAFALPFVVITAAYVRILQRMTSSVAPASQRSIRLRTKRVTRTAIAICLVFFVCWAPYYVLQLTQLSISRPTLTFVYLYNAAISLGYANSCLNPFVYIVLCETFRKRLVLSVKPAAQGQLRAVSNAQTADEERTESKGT
Sequence of Cytochrome P450 3A4 (P08684 whole entry): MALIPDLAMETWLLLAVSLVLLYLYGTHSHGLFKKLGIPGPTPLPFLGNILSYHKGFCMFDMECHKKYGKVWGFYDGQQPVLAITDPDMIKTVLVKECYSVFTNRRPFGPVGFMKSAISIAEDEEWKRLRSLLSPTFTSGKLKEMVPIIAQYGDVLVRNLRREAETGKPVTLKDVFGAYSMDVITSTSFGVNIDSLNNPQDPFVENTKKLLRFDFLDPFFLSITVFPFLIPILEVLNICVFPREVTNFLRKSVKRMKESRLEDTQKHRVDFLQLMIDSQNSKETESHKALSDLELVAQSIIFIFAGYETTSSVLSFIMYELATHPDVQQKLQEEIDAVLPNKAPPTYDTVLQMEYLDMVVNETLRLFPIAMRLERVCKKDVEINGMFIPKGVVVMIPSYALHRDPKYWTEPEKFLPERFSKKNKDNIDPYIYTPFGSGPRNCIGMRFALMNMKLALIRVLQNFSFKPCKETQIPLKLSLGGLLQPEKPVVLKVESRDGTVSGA
Sequence of NACHT, LRR and PYD domains-containing protein 3 (Q96P20 whole entry, the tested form may be a part): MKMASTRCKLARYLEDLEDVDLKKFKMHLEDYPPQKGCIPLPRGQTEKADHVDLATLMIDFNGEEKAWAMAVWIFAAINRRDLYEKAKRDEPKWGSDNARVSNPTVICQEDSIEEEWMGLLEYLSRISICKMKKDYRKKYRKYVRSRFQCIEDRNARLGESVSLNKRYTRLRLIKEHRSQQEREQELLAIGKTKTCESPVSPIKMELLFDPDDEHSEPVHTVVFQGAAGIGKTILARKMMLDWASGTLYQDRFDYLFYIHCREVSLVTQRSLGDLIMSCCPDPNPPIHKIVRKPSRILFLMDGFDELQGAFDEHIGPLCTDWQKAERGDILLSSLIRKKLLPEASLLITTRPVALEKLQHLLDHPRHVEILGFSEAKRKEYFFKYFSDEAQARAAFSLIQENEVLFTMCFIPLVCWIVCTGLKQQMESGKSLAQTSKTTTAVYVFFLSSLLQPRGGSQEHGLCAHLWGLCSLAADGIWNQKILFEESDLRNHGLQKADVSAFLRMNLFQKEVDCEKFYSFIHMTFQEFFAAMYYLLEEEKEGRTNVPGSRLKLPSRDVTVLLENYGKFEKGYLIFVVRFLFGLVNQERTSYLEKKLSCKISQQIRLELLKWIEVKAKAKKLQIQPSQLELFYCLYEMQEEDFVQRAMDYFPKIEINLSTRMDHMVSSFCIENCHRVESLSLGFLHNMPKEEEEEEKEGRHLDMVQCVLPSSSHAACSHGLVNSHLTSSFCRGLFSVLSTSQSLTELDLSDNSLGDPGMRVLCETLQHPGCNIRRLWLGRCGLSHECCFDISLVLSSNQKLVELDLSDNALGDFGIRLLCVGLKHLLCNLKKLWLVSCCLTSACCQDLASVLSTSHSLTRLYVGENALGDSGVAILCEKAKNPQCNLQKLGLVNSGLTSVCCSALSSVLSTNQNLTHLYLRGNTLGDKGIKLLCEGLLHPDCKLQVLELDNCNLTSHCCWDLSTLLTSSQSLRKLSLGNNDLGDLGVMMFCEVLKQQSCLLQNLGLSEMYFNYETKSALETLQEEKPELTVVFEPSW
Sequence of Neuropeptides B/W receptor type 1 (P48145 whole entry): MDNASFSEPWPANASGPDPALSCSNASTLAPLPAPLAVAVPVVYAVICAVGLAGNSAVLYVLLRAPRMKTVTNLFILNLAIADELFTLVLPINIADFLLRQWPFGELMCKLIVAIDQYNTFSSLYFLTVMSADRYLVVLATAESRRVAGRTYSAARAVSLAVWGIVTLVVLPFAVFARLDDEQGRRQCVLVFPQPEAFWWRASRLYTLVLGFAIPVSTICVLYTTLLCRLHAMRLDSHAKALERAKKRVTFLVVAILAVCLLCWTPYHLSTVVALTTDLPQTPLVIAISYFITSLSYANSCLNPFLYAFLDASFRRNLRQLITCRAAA
Sequence of Dual specificity protein phosphatase 3 (P51452 whole entry): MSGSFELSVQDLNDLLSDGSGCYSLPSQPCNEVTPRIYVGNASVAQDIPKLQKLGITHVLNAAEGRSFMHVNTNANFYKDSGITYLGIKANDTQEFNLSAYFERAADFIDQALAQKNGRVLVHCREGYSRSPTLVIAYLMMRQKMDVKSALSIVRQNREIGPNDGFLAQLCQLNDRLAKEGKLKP
Sequence of Protein Rev (P05866 whole entry): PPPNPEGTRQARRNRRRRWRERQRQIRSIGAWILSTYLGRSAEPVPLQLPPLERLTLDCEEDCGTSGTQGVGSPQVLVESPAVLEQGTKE

## COc1cccc(/C=C2/C(=O)NC(=O)N(c3cccc(C)c3)C2=O)c1O
[1]
  Ki: 33.1 µM (inactive)

## COC(=O)[C@@H](Cc1c[nH]c2ccccc12)NC(=O)CCC(=O)c1ccc(Br)cc1
[2]
  IC50: 24.5 µM (not active)

## O=c1c2cc(Cl)ccc2nc(-c2ccc([N+](=O)[O-])cc2)n1O
[3]
  CC50: 17.3 µM (active)
cells
  IC50: 17.8 µM (active)
[4]
  CC50: 22.6 µM (active)
[5]
  IC50: 6.6 µM (active)

## CC[n+]1c(/C=C/Nc2ccccc2)oc2ccccc21
Cytochrome P450 1A2
  AC50: 15.8 µM (inconclusive)
Cytochrome P450 3A4
  AC50: 25.1 µM (inconclusive)
Protein Rev
  IC50: 5.66 µM (active)
[6]
  EC50: > 195 µM (not active)

## COc1cc(OC)cc(Oc2c(Cl)cnn(-c3ccc(C(C)C)cc3)c2=O)c1
[7]
  IC50: 8.2 µM (active)
[8]
  IC50: 10.5 µM (inactive)
